The experiment in a line: Comparison of nasal sleep compositions formulated with type A or type B crystalline CBD. The experiment is classed as in vivo. Conditions: nasal sleep compositions differing only in the crystalline CBD used. As to the method: Two nasal sleep compositions are prepared as disclosed herein, such as according to Example 1, 5 and/or 7, the only difference being that the crystalline CBD used in the formulation is either of type A (needle-like crystals; FIG. 1) or type B (bunch/cluster-like; FIG. 2).
Type A crystalline CBD is sourced from Enecta, while type B CBD is sourced from Pharma Hemp. Further details can e.g. be found in the first aspect of the invention, such as Table 1.

Each structure is given as a SMILES string.

With `C=C(C)[C@@H]1CCC(C)=C[C@H]1c1c(O)cc(CCCCC)cc1O` [type A CBD, Cannabidiol], the “Activity/potency of type A CBD versus type B CBD” value is given as “significantly more active than type B CBD”. For the setting “listed as CBD with a needle-like crystal structure”, the “Activity/potency of type A CBD versus type B CBD” value was “significantly more potent than CBD with a different crystal structure”.
